27 molecules from patent publication US9255100B2 (BAYER INTELLECTUAL PROPERTY GMBH, priority 2010, dated 2016) can be followed below.

For this test, the target named is T1, N-terminally GST-tagged human full length recombinant Mps-1 kinase (Homo sapiens, UniProt P33981).
T1 construct: N-terminally GST-tagged human full length recombinant Mps-1 kinase; purchased Invitrogen, Karslruhe, Germany PV4071
T1 sequence (P33981 1-857): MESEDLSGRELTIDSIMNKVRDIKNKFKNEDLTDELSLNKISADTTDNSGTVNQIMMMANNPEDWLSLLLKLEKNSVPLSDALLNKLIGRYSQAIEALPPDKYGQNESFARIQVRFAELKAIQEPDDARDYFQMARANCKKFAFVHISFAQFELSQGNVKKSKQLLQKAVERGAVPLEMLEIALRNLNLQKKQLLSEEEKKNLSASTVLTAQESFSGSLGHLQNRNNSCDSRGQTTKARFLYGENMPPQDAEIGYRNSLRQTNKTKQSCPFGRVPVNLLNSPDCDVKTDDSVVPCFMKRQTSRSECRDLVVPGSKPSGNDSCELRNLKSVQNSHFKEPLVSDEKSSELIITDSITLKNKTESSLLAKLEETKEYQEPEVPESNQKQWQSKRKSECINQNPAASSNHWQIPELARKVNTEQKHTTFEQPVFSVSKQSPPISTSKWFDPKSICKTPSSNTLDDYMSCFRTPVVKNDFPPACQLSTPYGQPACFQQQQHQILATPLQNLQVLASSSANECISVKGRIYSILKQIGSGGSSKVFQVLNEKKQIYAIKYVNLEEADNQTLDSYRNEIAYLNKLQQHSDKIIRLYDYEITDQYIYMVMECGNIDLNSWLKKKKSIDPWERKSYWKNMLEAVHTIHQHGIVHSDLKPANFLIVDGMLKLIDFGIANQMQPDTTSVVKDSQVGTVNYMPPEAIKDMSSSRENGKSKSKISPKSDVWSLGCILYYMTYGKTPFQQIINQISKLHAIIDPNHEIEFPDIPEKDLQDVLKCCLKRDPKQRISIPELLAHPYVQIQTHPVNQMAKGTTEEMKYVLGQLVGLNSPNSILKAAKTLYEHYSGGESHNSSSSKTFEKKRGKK
Description: Mps-1 kinase assay (TR-FRET). In kind it is biochemical. The following applies: Mps1 IC50 [nM], 10 μM ATP, 1 μM peptide substrate, 60 min at 22° C. The essentials:
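Read-out: TR-FRET from Europium-labelled anti-phospho(Ser/Thr) antibody to SA-XLent after 1 h detection incubation at 22° C. Inhibition of kinase activity measured.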
(TR-FRET usually uses a lanthanide donor and a delayed reading to cut background.)
As for `Cc1cc(-c2cnc3c(NCC(C)(C)O)cc(-c4c(C)noc4C)nn23)ccc1C(=O)NC1CC1` [Example 159, N-cyclopropyl-4-{6-(3,5-dimethyl-1,2-oxazol-4-yl)-8-[(2-hydroxy-2-methylpropyl)amino]imidazo[1,2-b]pyridazin-3-yl}-2-methylbenzamide], the half-maximal inhibitory concentration (IC50) (usually the concentration at which inhibition is half-maximal) came to 14.8 nM.
Take `Cc1cc(-c2cnc3c(NCC(C)(C)O)cc(-c4cc[nH]n4)nn23)ccc1C(=O)NC1CC1` [Example 160, N-cyclopropyl-4-{8-[(2-hydroxy-2-methylpropyl)amino]-6-(1H-pyrazol-3-yl)imidazo[1,2-b]pyridazin-3-yl}-2-methylbenzamide]: the IC50 is 13.6 nM.
For `Cc1cc(-c2cnc3c(NCC(C)(C)O)cc(-c4cccn4C)nn23)ccc1C(=O)NC1CC1` [Example 161, N-cyclopropyl-4-{8-[(2-hydroxy-2-methylpropyl)amino]-6-(1-methyl-1H-pyrrol-2-yl)imidazo[1,2-b]pyridazin-3-yl}-2-methylbenzamide] the value was 6.2 nM; for `Cc1cc(-c2cnc3c(NCC(C)(C)O)cc(-c4cn[nH]c4)nn23)ccc1C(=O)NC1CC1` [Example 162, N-cyclopropyl-4-{8-[(2-hydroxy-2-methylpropyl)amino]-6-(1H-pyrazol-4-yl)imidazo[1,2-b]pyridazin-3-yl}-2-methylbenzamide], 64.9 nM.
With `Cc1cc(-c2cnc3c(NCC(C)(C)O)cc(-c4cncnc4)nn23)ccc1C(=O)NC1CC1` [Example 163, N-cyclopropyl-4-{8-[(2-hydroxy-2-methylpropyl)amino]-6-(pyrimidin-5-yl)imidazo[1,2-b]pyridazin-3-yl}-2-methylbenzamide] the figure was 30.5 nM.
Consider `Cc1cc(-c2cnc3c(NCC(C)(C)O)cc(-c4ccc(F)c(CO)c4)nn23)ccc1C(=O)NC1CC1` [Example 165, N-cyclopropyl-4-{6-[4-fluoro-3-(hydroxymethyl)phenyl]-8-[(2-hydroxy-2-methylpropyl)amino]imidazo[1,2-b]pyridazin-3-yl}-2-methylbenzamide], for which the IC50 amounted to 1.8 nM.
With `Cc1cc(-c2cnc3c(NCC(C)(C)O)cc(C4=CCOCC4)nn23)ccc1C(=O)NC1CC1` [Example 166, N-cyclopropyl-4-{6-(3,6-dihydro-2H-pyran-4-yl)-8-[(2-hydroxy-2-methylpropyl)amino]imidazo[1,2-b]pyridazin-3-yl}-2-methylbenzamide] the figure was 5.3 nM; with `Cc1cc(-c2cnc3c(NCC(C)(C)O)cc(Oc4cccc5ncccc45)nn23)ccc1C(=O)NC1CC1` [Example 167, N-cyclopropyl-4-{8-[(2-hydroxy-2-methylpropyl)amino]-6-(quinolin-5-yloxy)imidazo[1,2-b]pyridazin-3-yl}-2-methylbenzamide], 2.3 nM.
In the case of `Cc1cc(-c2cnc3c(NCC(C)(C)O)cc(Oc4ccc5ncccc5c4)nn23)ccc1C(=O)NC1CC1` [Example 168, N-cyclopropyl-4-{8-[(2-hydroxy-2-methylpropyl)amino]-6-(quinolin-6-yloxy)imidazo[1,2-b]pyridazin-3-yl}-2-methylbenzamide], the IC50 was determined as 0.3 nM.
Regarding `Cc1cc(-c2cnc3c(NCCC(F)(F)F)cc(Oc4ccc5ncccc5c4)nn23)ccc1C(=O)NC1CC1` [Example 169, N-cyclopropyl-2-methyl-4-{6-(quinolin-6-yloxy)-8-[(3,3,3-trifluoro-propyl)amino]imidazo[1,2-b]pyridazin-3-yl}benzamide], the IC50 was found to be 0.1 nM.
Regarding `Cc1cc(-c2cnc3c(NCCC(F)(F)F)cc(Oc4cccc5ncccc45)nn23)ccc1C(=O)NC1CC1` [Example 170, N-cyclopropyl-2-methyl-4-{6-(quinolin-5-yloxy)-8-[(3,3,3-trifluoro-propyl)amino]imidazo[1,2-b]pyridazin-3-yl}benzamide], the IC50 worked out at 0.7 nM.
For `Cc1cc(-c2cnc3c(NCCC(F)(F)F)cc(SC4CCCCC4)nn23)ccc1C(=O)NC1CC1` [Example 171, 4-{6-(cyclohexylsulfanyl)-8-[(3,3,3-trifluoropropyl)amino]imidazo [1,2-b]pyridazin-3-yl}-N-cyclopropyl-2-methylbenzamide] the value was 0.8 nM; for `Cc1cc(-c2cnc3c(NCC(C)(C)O)cc(SC4CCCCC4)nn23)ccc1C(=O)NC1CC1` [Example 172, 4-{6-(cyclohexylsulfanyl)-8-[(2-hydroxy-2-methylpropyl)amino]imidazo[1,2-b]pyridazin-3-yl}-N-cyclopropyl-2-methylbenzamide], 0.8 nM.
For `Cc1cc(-c2cnc3c(NCC(C)(C)O)cc(Oc4cccnc4)nn23)ccc1C(=O)NC1CC1` [Example 173, N-cyclopropyl-4-{8-[(2-hydroxy-2-methylpropyl)amino]-6-(pyridin-3-yloxy)imidazo[1,2-b]pyridazin-3-yl}-2-methylbenzamide] the value was 0.4 nM; for `Cc1cc(-c2cnc3c(NCCC(F)(F)F)cc(Oc4cccnc4)nn23)ccc1C(=O)NC1CC1` [Example 174, N-cyclopropyl-2-methyl-4-{6-(pyridin-3-yloxy)-8-[(3,3,3-trifluoro-propyl)amino]imidazo[1,2-b]pyridazin-3-yl}benzamide], under 0.1 nM.
As for `CC(C)CNc1cc(Cl)nn2c(-c3ccc(C(N)=O)cc3)cnc12` [Example 176, 4-{6-Chloro-8-[(2-methylpropyl)amino]imidazo[1,2-b]pyridazin-3-yl}benzamide], the IC50 worked out at 465 nM.
On to `CNC(=O)c1ccc(-c2cnc3c(NCC(C)C)cc(Cl)nn23)cc1` [Example 178, 4-{6-Chloro-8-[(2-methylpropyl)amino]imidazo[1,2-b]pyridazin-3-yl}-N-methylbenzamide], for which the IC50 was 172 nM.
With `CC(C)CNc1cc(Cl)nn2c(-c3ccc(C(=O)NC(C)C)cc3)cnc12` [Example 179, 4-{6-Chloro-8-[(2-methylpropyl)amino]imidazo[1,2-b]pyridazin-3-yl}-N-(propan-2-yl)benzamide] the figure was 601 nM.
With `CNC(=O)c1ccc(-c2cnc3c(NCC(C)C)cc(Cl)nn23)cc1Cl` [Example 180, 2-Chloro-4-{6-chloro-8-[(2-methylpropyl)amino]imidazo[1,2-b]pyridazin-3-yl}-N-methylbenzamide] the figure was 327 nM; with `CC(C)CNc1cc(Cl)nn2c(-c3ccc(C(=O)NC4CC4)c(Cl)c3)cnc12` [Example 181, 2-Chloro-4-{6-chloro-8-[(2-methylpropyl)amino]imidazo[1,2-b]pyridazin-3-yl}-N-cyclopropyl-benzamide], 39.9 nM; with `CC(C)CNc1cc(Cl)nn2c(-c3ccc4c(NC5CC5)noc4c3)cnc12` [Example 183, 6-Chloro-3-[3-(cyclopropylamino)-1,2-benzoxazol-6-yl]-N-(2-methylpropyl)imidazo[1,2-b] pyridazin-8-amine], 290 nM.
Take `CC(C)CNc1cc(Cl)nn2c(-c3ccc(-c4cnc(C5CC5)[nH]4)cc3)cnc12` [Example 184, 6-Chloro-3-[4-(2-cyclopropyl-1H-imidazol-5-yl)phenyl]-N-(2-methylpropyl)imidazo[1,2-b]pyridazin-8-amine]: the IC50 worked out at 101 nM.
With `CNC(=O)c1ccc(-c2cnc3c(NCc4cccs4)cc(Cl)nn23)cc1Cl` [Example 186, 2-Chloro-4-{6-chloro-8-[(thiophen-2-ylmethyl)amino]imidazo[1,2-b]pyridazin-3-yl}-N-methylbenzamide] the figure was 338 nM; with `O=C(NC1CC1)c1ccc(-c2cnc3c(NCc4cccs4)cc(Cl)nn23)cc1Cl` [Example 187, 2-Chloro-4-{6-chloro-8-[(thiophen-2-ylmethyl)amino]imidazo[1,2-b]pyridazin-3-yl}-N-cyclopropyl-benzamide], 49.8 nM.
For `CNC(=O)c1ccc(-c2cnc3c(NCc4cccs4)cc(Cl)nn23)cc1` [Example 190, 4-{6-Chloro-8-[(thiophen-2-yl-methyl)amino]imidazo[1,2-b]pyridazin-3-yl}-N-methylbenzamide] the value was 660 nM; for `NC(=O)c1ccc(-c2cnc3c(NCc4cccs4)cc(Cl)nn23)cc1` [Example 191, 4-{6-Chloro-8-[(thiophen-2-yl-methyl)amino]imidazol[1,2-b]pyridazin-3-yl}benzamide], at least 20000 nM.
With `Cn1nccc1-c1cc(NC[C@H](O)[C@H]2COC(C)(C)O2)c2ncc(-c3ccc(C(=O)NC4CC4)cc3)n2n1` [Example 192, N-cyclopropyl-4-[8-({(2S)-2-[(4R)-2,2-dimethyl-1,3-dioxolan-4-yl]-2-hydroxyethyl}amino)-6-(1-methyl-1H-pyrazol-5-yl)imidazo[1,2-b]pyridazin-3-yl]benzamide] the figure was 21.5 nM.
